“Also recorded” adds a separate entry of the source. Where two headings read alike, the source gives them in different places.
Legend:
[1] = system: cultured somatosensory neurons (TG, DRG); test: Ratiometric calcium imaging of cultured sensory neurons; type: cell-based, mice or rats
[2] = system: mechanical response thresholds; test: Von Frey mechanical response thresholds after intraplantar toxin; type: in vivo, mouse; settings: 500 nM in 10 μl intraplantar, WT mice, 30 minutes after injection
Protocol: For behavioral experiments in FIG. 4, adult mice (6-12 weeks) were used. Male and female mice were first considered separately in hindpaw nocifensive response experiments. […] Therefore, male and female behavioral responses were pooled and subsequent experiments were performed on both male and female mice for CKO and WT littermate experiments, or only male mice for other conditions (e.g. Cap ablation). Nocifensive responses were recorded during a 20 minute observation period immediately following intraplantar injections (10 μl PBS with or without 5 μM Hm1a). Licking/biting behavior was scored as seconds of behavior with the experimenter blinded to injection condition and experimental cohort (WT, CKO or Cap Ablated mice). Hargreaves and Von Frey tests were performed 30 minutes after intraplantar injection of 500 nM Hm1a or Hm1b. I.t. cap ablation was performed as previously described^34, and i.t. cap treated mice were tested on a hot plate to ensure ablation of TRPV1+afferents. Ablation was also confirmed by histology.

[3] = system: splanchnic colonic afferents (high-threshold mechanoreceptors); test: Ex vivo gut-nerve single-unit recordings; type: cell-based, mouse; settings: for mechanosensitivity of colonic nociceptors: Compound B 100 μM; for Hm1a-induced mechanical hypersensitivity in the presence of the blocker: Hm1a 100 nM, ICA 500 nM or Compound B 100 μM
Protocol: In vitro single-unit extracellular recordings of action potential discharge were made from splanchnic colonic afferents. Recordings were made from healthy or CVH mice using standard protocols^61-63. Baseline mechanosensitivity was determined in response to application of a 2 g von frey hair (vfh) probe to the afferent receptive field for 3 seconds. This process was repeated 3-4 times, separated each time by 10 seconds. Mechanosensitivity was then re-tested after the application of Hm1a (100 nM) or the Nav1.1 blocker ICA-121432 (500 nM) or a combination of both ICA-121432 (500 nM) and Hm1a (100 nM). Data are presented as spikes/s and are expressed as mean±SEM.
Colitis was induced by administration of TNBS as described previously^62,63. Briefly, 13 week old anaesthetized mice were administered an intra-colonic enema of 0.1 mL TNBS (130 μg/mL in 30% EtOH) via a polyethylene catheter^62,63,66. Histological examination of mucosal architecture, cellular infiltrate, crypt abscesses, and goblet cell depletion confirmed significant TNBS-induced damage by day 3 post-treatment, which largely recovered by day 7, and fully recovered by 28 days. […] As such, they are termed ‘chronic visceral hypersensitivity’ (CVH) mice^62,63,66,68.
Ex vivo single-unit extracellular recordings of action potential discharge were made from splanchnic colonic afferents. Recordings were made from healthy or CVH mice using standard protocols (e.g. Brierley, S. M., Jones, R. C., III, Gebhart, G. F. & Blackshaw, L. A. Splanchnic and pelvic mechanosensory afferents signal different qualities of colonic stimuli in mice. Gastroenterology 127, 166-178 (2004)). Baseline mechanosensitivity was determined in response to application of a 2-g Von Frey hair probe to the afferent receptive field for 3 s. This process was repeated 3-4 times, separated each time by 10 s. Mechanosensitivity was then re-tested after the application of Hm1a (100 nM) or the Nav1.1 blocker compound B (100 μM) or a combination thereof. Instantaneous frequency is defined as the inverse of the time interval between an action potential and the previous action potential. Group data are presented as spikes per second and are expressed as mean±s.e.m.

[4] = system: NTG induced mechanical allodynia; test: NTG-induced hind paw mechanical allodynia (migraine model); type: in vivo, mouse; settings: for allodynia threshold compared to baseline threshold: 75 and 120 min
Protocol: NTG-induced hind paw mechanical allodynia. Mechanical thresholds were determined with von Frey monofilaments (VFF; eight filaments, range 0.008-2 g, Stoelting Co) using the Dixon up-and-down method^51. For drug testing, 48 naive C57Bl/6 male mice (20-30 g) were divided randomly to the following groups (n=12 mice per group): Vehicle/Cyclodextrin, Vehicle/Compound B 75 mg/kg, NTG/Cyclodextrin, and NTG/Compound B 75 mg/kg. Prior to testing all animals were handled for 1 week in the behavior room during mid-morning using the cupped hand technique^52. On each testing day, a maximum of 12 animals was used, divided equally into the four groups. Mice were confined in clear acrylic cages (8.7″×8.7″×5″) divided into four chambers, each on a raised wire mesh platform that allowed full access to the tested paws. Mice were acclimated for two hours, on the day of testing and one day prior. Mechanical thresholds were evaluated before (baseline), and 75 and 120 min after i.p. administration of 10 mg/kg NTG (or vehicle), in accordance with NTG's time-to-peak-effect (TPE) in this model (data not shown). 40% Cyclodextrin in saline or 75 mg/kg Compound B dissolved in 40% cyclodextrin in saline, was administered contralateral to NTG administration thirty minutes before the first post-NTG time point, in accordance with compound B's TPE. Each filament was applied perpendicular to the center of each of the hind paw five times, spaced 1 sec apart, starting with the middle VFF (0.4 g). In the absence of a response, the next VFF in the series was applied until a response was witnessed. Response to VFF was recorded as an immediate withdrawal of the tested hind paw to the applied stimulus, with or without an observed licking behavior. The withdrawal threshold was quantified as the mean of both hind paws. The experimenter was blind to the treatment group.

[5] = Hm1a-sensitive P0 mouse TG neurons

Molecule: COc1cc(CNC(=O)CCCC/C=C/C(C)C)ccc1O [capsaicin]
- toxin-sensitive P0 neurons that respond to the agonist (in words) [1, 5]: only a third

Molecule: NC1=N[C@H](O)[C@H]2[C@H]3O[C@]4(O)O[C@@H]([C@@H](O)[C@@]2(N1)[C@@H]4O)[C@]3(O)CO [Tetrodotoxin]
- Hm1a-evoked calcium responses [1]: blocked

Molecule: CCCCC[C@H](O)/C=C/[C@H]1[C@H](O)CC(=O)[C@@H]1C/C=C\CCCC(=O)O [prostaglandin E2]
- percentage of toxin sensitive cells ([1]; sensitization of adult neurons prior to toxin exposure): greatly enhances

Molecule: SGTx1
- cohort of neurons excited compared with Hm1a ([1]; TG and embryonic DRG neurons): excites a larger cohort of TG and embryonic DRG neurons than Hm1a

Molecule: δ-theraphotoxin-Hm1b
- sensitization to mechanical stimulation [2]: Equivalent mechanical sensitization

Molecule: CC1CCC(C(C)C)C(O)C1 (centres unmarked) [menthol]
- toxin-sensitive cells that also respond to the agonist [1]: 38%

Molecule: NC(N)=NC(N)=Nc1cccc(Cl)c1 [mCPBG]
- toxin-sensitive cells that also respond to the agonist [1, 5]: 52%

Molecule: C=CCN=C=S [mustard oil]
- toxin-sensitive cells that also respond to the agonist [1, 5]: < 13%

Molecule: Cc1c(C(N)=O)nnn1Cc1ccccc1 [Compound B]
- mechanosensitivity of colonic nociceptors ([3]; CVH mice, ICA-121431 500 nM): reduced mechanosensitivity in a sub-population; also recorded: inhibition of mechanosensitivity of a subpopulation
- Hm1a-induced mechanical hypersensitivity in the presence of the blocker ([3]; CVH mice): not affected by the presence of Hm1a; also recorded: prevents Hm1a-induced potentiation
- mechanosensitivity of colonic nociceptors ([3]; healthy mice): inhibits the mechanosensitivity; also recorded: inhibition of mechanosensitivity of a subpopulation
- Hm1a-induced mechanical hypersensitivity in the presence of the blocker ([3]; healthy mice): inhibits the sensitizing effect of Hm1a toxin; also recorded: prevents Hm1a-induced potentiation
- NTG induced tactile allodynia ([4]; Compound B 75 mg/kg in 40% cyclodextrin in saline): able to reverse NTG induced tactile allodynia
- allodynia threshold compared to baseline threshold ([4]; NTG 10 mg/kg i.p. + Compound B 75 mg/kg): no significant difference
- allodynia threshold compared to baseline threshold ([4]; Vehicle + Compound B 75 mg/kg): no significant difference

Molecule: O=C(Nc1ccc(S(=O)(=O)Nc2nccs2)cc1)C(c1ccccc1)c1ccccc1 [ICA-121431]
- Hm1a-evoked calcium responses ([1]; blocker 500 nM, Hm1a 500 nM, embryonic DRG and P0 mouse TG cultures): greatly diminishes
- responses to SGTx1 ([1]; in presence of ICA-121431): only partially blocks
- CVH sensitized fibers with reduced mechanosensory responses ([3]; CVH mice, blocker 500 nM): 70%
- subpopulation of CVH colonic afferents inhibited (inhibited/fibers) ([3]; CVH mice, blocker 500 nM): 7/10
- mechanosensitivity of colonic nociceptors ([3]; CVH mice, ICA-121431 500 nM): levels resembling those of baseline controls
- Hm1a-induced mechanical hypersensitivity in the presence of the blocker ([3]; CVH mice): blocks the sensitizing effects of Hm1a
- Hm1a-induced mechanical hypersensitivity in the presence of the blocker ([3]; CVH mice, listed as ICA-121432): failed to induce mechanical hypersensitivity
- fibers in which mechanical responses are reduced and Hm1a sensitization blocked ([3]; healthy mice, blocker 500 nM): 50%
- population of colonic afferents inhibited (inhibited/fibers) ([3]; healthy mice, blocker 500 nM): 5/10
- Hm1a-induced mechanical hypersensitivity in the presence of the blocker ([3]; healthy mice): blocks Hm1a sensitization
- Hm1a-induced mechanical hypersensitivity in the presence of the blocker ([3]; healthy mice, listed as ICA-121432): failed to induce mechanical hypersensitivity

— US20190060284A1, “PHARMACOLOGICAL MODULATORS OF NAV1.1 VOLTAGE-GATED SODIUM CHANNELS ASSOCIATED WITH MECHANICAL PAIN” (priority 2016, published 2019)
